The record followed here is patent US10568877B2, “Preparation and anti-HSV-1 application of quinolinone derivatives” (OCEAN UNIVERSITY OF CHINA, priority 2015, dated 2020).

The subject of the data set is HSV-1. As to the kind of experiment: Antiviral activity against HSV-1 by cytopathic (CPE) assay in Hep-2 cells. The data set is classed as cell-based, Herpes Simplex Virus 1. The following applies: for IC50: anti-HSV-1 activity, CPE assay, Hep-2 cells, neutral red OD 540 nm, Reed-Muench; for TI = TC50/IC50: TC50 = median toxic concentration for Hep-2 monolayer cells, IC50 against HSV-1. The method, then:
The antiviral activities against HSV-1 were evaluated by cytopathic (CPE) assay. Hep-2 monolayer cells were treated with trypsin enzyme and transferred to 96-well plates. HSV-1 viruses were seeded with Hep-2 cells in 96-well plates, with 2% RPMI-1640 medium, and incubated under 37° C., 5% CO2. After more than 90% lesions, the virus-infected cells were repeatedly freezed and thawed for 3 times, centrifuged, and stored in the refrigerator at −80° C. Each tested compound was dissolved in 10 μL DMSO to make a homogeneous solution and the solution was diluted 10 times by one-to-one dilution with 2% RPMI-1640 medium. The solution gradient was added to the infected cells incubated in 96-well plates. Ribavirin was used as positive control. Normal cells alone and infected cells alone were used as control. All samples were incubated under 37° C., 5% CO2. Examine pathological changes once every hour, for 24 h. […] OD value was determined at 540 nm. IC50 values of the tested compounds were calculated by Reed-Muench methods.

As for `C=C(C)[C@H]1CC[C@](C)(/C=C/c2ccc3c(c2O)[C@@](O)(c2ccccc2)[C@H](OC)C(=O)N3)O1` [Compound 1], the IC50 (Human alphaherpesvirus 1) lay within 0.05 to 2 µM. Same read-out and setting: the value for `CO[C@@H]1C(=O)Nc2ccc(/C=C/[C@]3(C)CCC(=O)[C@@H](C)C3)c(O)c2[C@@]1(O)c1ccccc1` [Compound 2a] was 0.05 to 2 µM; that for `CO[C@@H]1C(=O)Nc2ccc(/C=C/[C@]3(C)CC[C@@H](O)[C@@H](C)C3)c(O)c2[C@@]1(O)c1ccccc1` [Compound 3] was 0.05 to 2 µM; that for `CO[C@@H]1C(=O)Nc2ccc(/C=C/[C@@]3(C)CCC(=O)[C@@H](C)C3)c(O)c2[C@@]1(O)c1ccccc1` [Compound 4] was 0.05 to 2 µM. Still for that read-out and setting: with `COc1ccc([C@@]2(O)c3c(ccc(/C=C/[C@@]4(C)OC(C)(C)[C@@H]5C[C@@H]54)c3O)NC(=O)[C@@H]2OC)cc1` [Compound 5] the figure was 2 to 25 µM; with `COc1ccc([C@@]2(O)c3c(ccc(/C=C/[C@@]4(C)OC(C)(C)[C@H]5C[C@H]54)c3O)NC(=O)[C@@H]2OC)cc1` [Compound 6], 2 to 25 µM. Same read-out and setting: with `COc1ccc([C@@]2(O)c3c(ccc(/C=C/[C@]4(C)CC[C@@H](O)C(C)(C)O4)c3O)NC(=O)[C@@H]2OC)cc1` [Compound 7] the figure was 2 to 25 µM; with `COc1ccc([C@@]2(O)c3c(ccc(/C=C/C4(C)CCC(C)(C)C(O)O4)c3O)NC(=O)[C@@H]2OC)cc1` (some centres unmarked) [Compound 10], 0.05 to 2 µM; with `COc1ccc([C@@]2(O)c3c(ccc(/C=C/[C@@]4(C)CCC(C)(C)CO4)c3O)NC(=O)[C@@H]2OC)cc1` [Compound 11], 2 to 25 µM.

For `COc1ccc([C@@]2(O)c3c(ccc(/C=C/[C@]4(C)CCC(C)(C)CO4)c3O)NC(=O)[C@@H]2OC)cc1` [Compound 12], the “TI = TC50/IC50” value was “++ (“++” means TI was between 20 and 100)”; the IC50 lay within 2 to 25 µM. In the case of `COc1ccc([C@]2(O)c3c(O)cccc3NC(=O)[C@H]2O)cc1` [Compound 15], the IC50 (Human alphaherpesvirus 1) was in the range of 50 to 100 µM.

As to `COc1ccc([C@]2(O)c3ccccc3NC(=O)[C@H]2O)cc1` [Compound 16], under “Human alphaherpesvirus 1”, the IC50 was 50 to 100 µM.

Compound `COc1ccc([C@@]2(O)c3c(ccc(CC=C(C)C)c3O)NC(=O)[C@@H]2OC)cc1` [Compound 17] yielded an IC50 (Human alphaherpesvirus 1) of 25 to 50 µM.

Compound `COc1ccc([C@@]2(O)c3c(ccc(/C=C/C(C)=O)c3O)NC(=O)[C@@H]2OC)cc1` [Compound 18] registered an IC50 (Human alphaherpesvirus 1) of 25 to 50 µM.

Compound `C=C(C)/C=C/c1ccc2c(c1O)[C@](O)(c1ccc(OC)cc1)[C@@H](OC)C(=O)N2` [Compound 19] returned a half-inhibitory concentration (IC50) (Human alphaherpesvirus 1) of 25 to 50 µM. On the same count and under the same terms, the value for `COc1ccc(-c2c(O)c(=O)[nH]c3ccccc23)cc1` [Compound 29] was 25 to 50 µM.

Turning to `O=c1[nH]c2ccccc2c(-c2ccccc2)c1O` [Compound 30], the IC50 (Human alphaherpesvirus 1) was in the range of 25 to 50 µM. With `NC(=O)c1ncn([C@@H]2O[C@H](CO)[C@@H](O)[C@H]2O)n1` [Ribavirin, reference compound], the “TI = TC50/IC50” value was “++++ (“++++” means TI > 500)”. The same compound showed an IC50 (Human alphaherpesvirus 1) of 50 to 100 µM.
